One test relates to S. pneumoniae TIGR4ΔfoID. In words: Planktonic growth of S. pneumoniae foID deletion mutant. In kind it is cell-based, Streptococcus pneumoniae. The settings on record: 0.25 μg/ml carolacton. The procedure: FIG. 4. Carolacton effects on S. pneumoniae TIGR4 and foID deletion, complementation and fhs deletion mutants. (A) Growth inhibition of planktonic cultures of S. pneumoniae TIGR4 wild type, ΔfoID deletion mutant and controls in THBY. Carolacton (caro) (0.25 μg/ml) was added at an optical density of 600 nm (OD600) of 0.15. (B) Planktonic growth of the S. pneumoniae TIGR4 wild type and the TIGR4Δfhs mutant in THBY. Cultures were treated with 0.25 μg/ml carolacton (OD600 0.15).
The Streptococcus mutans and Streptococcus pneumoniae strains used herein are UA159 and TIGR4, respectively. S. pneumoniae TIGR4 was routinely grown on Columbia blood agar plates (BD Biosciences) as described previously (Donner et. al, 2016). Streptococci were grown in Todd-Hewitt-Broth +1% (w/v) yeast extract (THBY, BD Biosciences)) at 37° C. and 5% CO2. The E. coli ToIC strain used in carolacton-resistant mutant development is an antibiotic-sensitive E. coli strain without its outer membrane channel protein ToIC. E. coli DH1OB or DH5α strain was used for gene cloning and E. coli BL21 (DE3) was used for protein expression. The protein expression plasmid pHis-TEV (Liu et al., 2009) was used for cloning and expression of all different foID gene orthologues studied herein.

In a further test the target is T1, ecFoID Q98H (Escherichia coli, UniProt P24186, Q98H).
T1 construct: made in house; host or cells: E. coli BL21 (DE3)
In words: FoID dehydrogenase (DH) enzyme assay. Type of test: biochemical, E. coli. The procedure:
(§1) (6R,S)-5,10-Methylene-5,6,7,8-tetrahydrofolic acid ((6R,S)-5,10-CH2-THF), calcium salt and (6R,S)-5,10-Methenyl-5,6,7,8-tetrahydrofolic acid ((6R,S)-5,10-CH=THF) chloride were purchased from Schircks Laboratories (Bauma, Switzerland) and were used as substrates for FoID dehydrogenase and cyclohydrolase enzyme assays, respectively. Only the R-isomer, which accounts for 50% of (6R,S)-5,10-CH2-THF and (6R,S)-5,10-CH=THF, respectively, is used by the enzyme. (6R,S)-5,10-CH2-THF was dissolved in N2-spargeled basic buffer (50 mM Tris-HCl (pH 8.0), 100 mM β-mercaptoethanol) as described by Sah and Varshney, 2015a (6R,S)-5,10-CH=THF was first dissolved in DMSO as a 100 mM stock solution.
(§2) Because FoID is a bifunctional enzyme, dehydrogenase and cyclohydrolase activities were determined for FoID enzyme kinetics, respectively. The dehydrogenase activity of FoID was assayed for its substrate 5,10-CH2-THF and cofactor NADP+ (in the case of MTHFD2, NAD+ was used as cofactor) based on monitoring the formation of 5,10-CH=THF while the cyclohydrolase activity of FoID was determined for its substrate 5,10-CH=THF by monitoring the hydrolysis of 5,10-CH2-THF. The enzyme kinetics for the dehydrogenase activity of all FoIDs except hsMTHFD1_DC were determined at 30° C. in 50 mM Tris-HCl (pH 7.5), 30 mM β-mercaptoethanol. The hsMTHFD1_DC dehydrogenase activity was measured in 25 mM MOPS (pH 7.3), 30 mM β-mercaptoethanol at 30° C. To measure the enzyme kinetics constants for 5,10-CH2-THF, for example in the case of ecFoID, the NADP concentration was fixed at 1 mM and the concentration of 5,10-CH2-THF varied from 5 μM to 1,500 μM (R-isomer). Similarly, to measure the kinetic constants of ecFoID for NADP+, the concentration of 5,10-CH2-THF (R-isomer) was fixed at 1 mM and the concentration of NADP+ varied from 10 μM to 1,500 μM. For different FoIDs, the varied concentration range of substrates could be different. The 50 μL reactions of dehydrogenase assays were initiated by adding appropriate amounts enzyme (4 nM ecFoID, 4 nM spFoID, 15 nM hsMTHFD1_DC, 20 nM hsMTHFD2, 20 nM G8S, 20 nM Q98H, 10 nM K54N, 200 nM ΔK54R55 in the corresponding assays) and terminated with 50 μL 1 M HCl after 2 min incubation at 30° C. To monitor the formation of 5,10-CH=THF, the absorbance of the reaction mixture was monitored at 350 nm in micro UV cuvettes (BRAND, Essex, Connecticut, USA). The concentration of 5,10-CH=THF produced in the reaction was determined using an extinction co-efficient of 0.0249 μM-1 cm-1. Cyclohydrolase activity for each FoID was assayed in the same buffer as dehydrogenase activity at 30° C. but for 30 s. The concentration of FoID used in each assay was 5 nM of ecFoID, spFoID and hsMTHFD1_DC, respectively, and 2 nM of hsMTHFD2. The consumption of 5,10-CH=THF was measured by recording the absorbance of the reactions at 355 nm using the TECAN Infinite 200 PRO equipped with a monochromator. To measure the enzyme kinetic constants, different concentrations of 5,10-CH=THF (varied from […]) were used in […] reaction mixtures. The inhibition constants (Ki) of carolacton on FoID were determined by measuring the apparent Km values when adding certain amounts of carolacton to the enzyme reactions. For ecFoID, 10 nM carolacton was added in the dehydrogenase assay and 50 nM carolacton was used in the cyclohydrolase assay. For spFoID, 25 nM carolacton was added in both dehydrogenase assay and cyclohydrolase assay. For hsMTHFD1_DC, 30 nM carolacton was added in the dehydrogenase assay and 10 nM in the cyclohydrolase assay. […] To compare the inhibition effects of carolacton between the different FoIDs, the half maximal inhibitory concentration (IC50) of carolacton on the same amount of enzyme was determined for FoIDs involved in this study. The enzyme concentration used to determine dehydrogenase activity IC50 was 10 nM, and the enzyme used for cyclohydrolase IC50 measurements was 5 nM. All enzyme kinetics measurements were performed as independent triplicates. […]

The target in another test is T2, ecFoID G8S (Escherichia coli, UniProt P24186, G8S).
T2 construct: made in house; host or cells: E. coli BL21 (DE3)
In words: FoID dehydrogenase (DH) enzyme assay. In kind it is biochemical, E. coli. The procedure: as §1, §2

The target in the next test is T3, ecFoID K54N (Escherichia coli, UniProt P24186, K54N).
T3 construct: made in house; host or cells: E. coli BL21 (DE3)
The test is described as follows: FoID dehydrogenase (DH) enzyme assay. In kind it is biochemical, E. coli. The procedure: as §1, §2

The next test concerns the target T4, ecFoID ΔK54R55 (Escherichia coli, UniProt P24186, DEL54-55).
T4 construct: made in house; host or cells: E. coli BL21 (DE3)
In words: FoID dehydrogenase (DH) enzyme assay. Type of test: biochemical, E. coli. The procedure: as §1, §2

For a further test, the target named is T5, ecFoID (Escherichia coli, UniProt P24186).
T5 construct: His-tag (vector pHis-TEV); made in house; host or cells: E. coli BL21 (DE3)
In words: FoID dehydrogenase (DH) enzyme assay. Type of test: biochemical, E. coli. The settings on record: for pKi: carolacton inhibition on DH activity, ecFoID. Here is the method:
as §1, §2

This note sets out measurements from patent US11357752B2, “Carolacton and derivatives thereof for use in the treatment of cell proliferation disorders” (Helmholtz-Zentrum für Infektionsforschung GmbH, priority 2017, dated 2022).

pIC50, pKi: −log10 of the molar value. Values joined by “and” are separate entries in the source; they are usually repeats but may differ in a detail not shown here. Equal entries are not always repeated.

For `CO[C@H](CC(=O)O)[C@@H](C)C(=O)[C@H](C)/C=C(\C)[C@H]1OC(=O)[C@H](O)[C@H](O)/C=C/[C@H](C)CCC[C@@H]1C` [Carolacton, carolacton], in the test on S. pneumoniae TIGR4ΔfoID, the “sensitivity of planktonic growth to carolacton” value is reported as “carolacton resistant”. Moreover, the pIC50 was 6.50 at ecFoID Q98H, 7.06 at ecFoID G8S and 7.81 at ecFoID. In addition, the “sensitivity of residual DH activity to carolacton” value on ecFoID K54N and on ecFoID ΔK54R55 was “completely insensitive” in each case. Besides, the negative logarithm of the Ki (pKi) at ecFoID (Ki (5,10-CH2—THF), vs 5,10-CH2-THF) was 7.68 and 7.67; at ecFoID (Ki (NADP^+), vs cofactor NADP+) it was 7.96.

The term pIC50 denotes the negative decadic logarithm of the IC50, by convention in mol/L. Higher therefore signals a low IC50. By pKi is commonly meant −log10 of the Ki, conventionally taken in molar units. Lower therefore signals a large Ki.
